Drawing on US7754709B2 (Solvay Pharmaceuticals BV, priority 2003, dated 2010), this text covers inhibition for five molecules.

Holding throughout (type): cell-based
Assay [1] has as its target T1, 17β-hydroxysteroid dehydrogenase type 1 (Homo sapiens, UniProt P14061).
T1 construct: expressed in transfected cells; host or cells: MCF-7
T1 sequence (P14061 1-328): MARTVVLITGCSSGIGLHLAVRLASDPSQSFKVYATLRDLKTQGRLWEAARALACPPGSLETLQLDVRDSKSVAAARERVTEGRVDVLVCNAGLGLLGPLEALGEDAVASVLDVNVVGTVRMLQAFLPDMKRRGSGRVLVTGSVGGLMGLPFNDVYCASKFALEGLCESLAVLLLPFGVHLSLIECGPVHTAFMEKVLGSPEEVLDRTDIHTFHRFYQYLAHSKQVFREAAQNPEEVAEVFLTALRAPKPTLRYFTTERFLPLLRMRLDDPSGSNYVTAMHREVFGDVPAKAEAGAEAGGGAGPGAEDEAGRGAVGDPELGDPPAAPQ
The assay is described as follows: Inhibition of 17β-HSD type 1 in MCF-7 cells stably expressing the isoenzyme (HPLC, tritium labeled estrone). Particulars: 2 nM estrone, read-out: % Inhibition of the 17β-HSD enzyme type 1 (HSD1); for inhibition at 1 µM: MCF7, 1 μM compound; for inhibition at 10 µM: MCF7, 10 μM compound. Put shortly:
(§1)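 MCF-7 lines each stably expressing one isoenzyme incubated in growth medium with compound (two concentrations) and 2 nM tritiated substrate: estrone (type 1), estradiol (type 2), androstenedione (type 3). TCA-stopped; conversion by HPLC with flow scintillation, inhibition relative to compound-free control.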

Assay [2] has as its target T2, 17β-hydroxysteroid dehydrogenase type 2 (Homo sapiens, UniProt P37059).
T2 construct: expressed in transfected cells; host or cells: MCF-7
T2 sequence (P37059 1-387): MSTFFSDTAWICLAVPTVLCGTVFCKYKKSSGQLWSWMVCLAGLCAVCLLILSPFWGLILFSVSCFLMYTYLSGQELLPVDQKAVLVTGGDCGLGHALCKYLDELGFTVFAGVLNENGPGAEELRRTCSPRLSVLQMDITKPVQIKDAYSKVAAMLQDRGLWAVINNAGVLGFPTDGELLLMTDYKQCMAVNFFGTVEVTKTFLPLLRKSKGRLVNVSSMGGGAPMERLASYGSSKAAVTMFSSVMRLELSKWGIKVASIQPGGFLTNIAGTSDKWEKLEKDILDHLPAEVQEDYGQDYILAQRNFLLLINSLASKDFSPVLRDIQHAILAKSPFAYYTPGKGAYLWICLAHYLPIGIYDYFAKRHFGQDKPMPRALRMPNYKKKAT
Briefly: Inhibition of 17β-HSD type 2 in MCF-7 cells stably expressing the isoenzyme (HPLC, tritium labeled estradiol). Particulars: 2 nM estradiol, read-out: % Inhibition of the 17β-HSD enzyme type 2 (HSD2); for inhibition at 1 µM: MCF7, 1 μM compound; for inhibition at 10 µM: MCF7, 10 μM compound. Put shortly:
as §1

The target in assay [3] is T3, 17β-hydroxysteroid dehydrogenase type 3 (Homo sapiens, UniProt P37058).
T3 construct: expressed in transfected cells; host or cells: MCF-7
T3 sequence (P37058 1-310): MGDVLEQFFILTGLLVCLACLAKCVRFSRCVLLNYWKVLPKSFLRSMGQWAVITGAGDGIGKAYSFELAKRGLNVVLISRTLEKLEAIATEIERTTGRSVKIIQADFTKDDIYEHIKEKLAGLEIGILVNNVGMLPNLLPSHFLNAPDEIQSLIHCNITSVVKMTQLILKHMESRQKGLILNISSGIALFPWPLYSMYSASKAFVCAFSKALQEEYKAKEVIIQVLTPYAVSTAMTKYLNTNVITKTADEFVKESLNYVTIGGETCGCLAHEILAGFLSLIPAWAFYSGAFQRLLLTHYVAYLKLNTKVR
The assay is described as follows: Inhibition of 17β-HSD type 3 in MCF-7 cells stably expressing the isoenzyme (HPLC, tritium labeled androstenedione). Particulars: 2 nM androstenedione, read-out: % Inhibition of the 17β-HSD enzyme type 3 (HSD3); for inhibition at 1 µM: MCF7, 1 μM compound; for inhibition at 10 µM: MCF7, 10 μM compound. In a few lines:
as §1

What is called inhibition is the drop in the measured response relative to a control, in per cent. As to `CCCSC1=C(CO)CCc2c1sc1nc3n(c(=O)c21)CCCCC3` [Compound 6c, 1,2,8,9,10,11-Hexahydro-3-(hydroxymethyl)-4-(propylthio)-[1]benzothieno[2′,3′:4,5]-pyrimido-[1,2-a]azepine-13(7H)-one], the inhibition at 1 µM in assay [1] was 47.7%; in assay [2] it was 37.5%; in assay [3], 20.4%. Further, the inhibition at 10 µM amounted to 82.4% in assay [1], 36.7% in assay [2] and 38.1% in assay [3].
For the molecule `CCCSC1=C(C=O)CCc2c1sc1nc3n(c(=O)c21)CCCCC3` [Compound 5c, 1,2,7,8,9,10,11,13-Octahydro-13-oxo-4-(propylthio)[1]benzothieno[2′,3′:4,5]-pyrimido-[1,2-a]azepine-3-carboxaldehyde], the inhibition at 1 µM in assay [1] amounted to 74%; in assay [2], 8.9%; in assay [3] it was 10.5%. Besides, the inhibition at 10 µM is 100% in assay [1], 18.6% in assay [2] and 100% in assay [3].
Turning to `O=C1CCCc2c1sc1nc3ccccn3c(=O)c21` [Compound 26, 2,3-Dihydro-12H-[l]benzothieno[2,3-d]pyrido[1,2-a]pyrimidin-4, 12(1H)-dione], the inhibition at 1 µM in assay [1] is 6.4%; in assay [2], 15.1%; in assay [3], -2.1%. In addition, the inhibition at 10 µM in assay [1] was -0.8%; in assay [2], 16.4%; in assay [3] it was 0.3%.
Take `CC(C)SC1=C(C=O)CCc2c1sc1nc3n(c(=O)c21)CCCCC3` [Compound 5e, 1,2,7,8,9,10,11,13-Octahydro-13-oxo-4-(isopropylthio)[1]benzothieno[2′,3′:4,5]-pyrimido-[1,2-a]azepine-3-carboxaldehyde]: the inhibition at 1 µM in assay [1] was 71.9%; in assay [2], 8.4%; in assay [3] it was 50.8%. The inhibition at 10 µM worked out at 100% in assay [1], 20.2% in assay [2] and 86.3% in assay [3].
For the molecule `O=c1c2c3c(sc2nc2n1CCCCC2)CCCC3` [Compound 2a, 2,3,4,7,8,9,10,11-Octahydro[1]benzothieno[2′,3′:4,5]pyrimido-[1,2-a]azepin-13(1H)-one], the values for the inhibition at 1 µM in assay [1], in assay [2] and in assay [3] were 10%, 16.2% and 39%, respectively. For the same molecule, the inhibition at 10 µM in assay [1] worked out at 45.9%; in assay [2], 23.4%; in assay [3], 24.9%.
